Laboratory results reported in patent US8183238B2, “Bicyclic and tricyclic compounds as KAT II inhibitors” (priority 2009, dated 2012).
Like-named read-outs stand apart in the source and are kept apart here.

How the values were obtained:
[1] = target: human KAT II (hKAT II) enzyme (Homo sapiens, UniProt Q8N5Z0); experiment: KAT II Inhibition Spectra Assay; type: biochemical; conditions: Table 5; hKAT II, decrease in OD370, 37° C., 15-20 h; read-out: KATII IC50
Method in brief: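 hKAT II (15 nM, 3× stock) converts L-kynurenine (3 mM, 3× stock) with α-ketoglutarate and PLP in Tris acetate; 15–20 h at 37 °C. Inhibition of the OD370 decrease read versus DMSO wells across a concentration range gives IC50.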

[2] = Prodrug in vivo pharmacokinetics in dogs (plasma, LC-MS-MS); parameters: species or system Dog (Beagle); conditions: Beagle, dog, in vivo, po, 1 mg/kg
Experimental: Test substances (Examples 4 and 71-73) were administered by oral gavage to groups of two dogs. Example 71 was also administered intravenously.
Blood samples were taken at various times after administration and submitted to analysis for the parent drug (Example 71) and pro-drug (Examples 72 and 73) using an LC-MS-MS assay. Pharmacokinetic parameters derived from the plasma analytical data were determined using Watson LIMS 7.2.003 (Thermo Fisher Scientific, Waltham, Mass.). The results are given in FIG. 1 and Tables 8, 9, 10, and 11.

[3] = Prodrug in vivo pharmacokinetics in monkeys (plasma, LC-MS-MS); parameters: species or system Monkey (Cynomolgus); conditions: Example 4 in monkey plasma after oral Example 4 (10 mg/kg active); for Cmax / Tmax / half-life / AUC: Cynomolgus, cynomolgus monkey, plasma, po, 10 mg/kg; for F: calculated using IV AUC of 265 ng · h/mL
Experimental: Test substances (Examples 4 and 71-73) were administered by oral gavage to groups of two monkeys.
Blood samples were taken at various times after administration and submitted to analysis for the parent drug (Example 4 and Example 71) and pro-drug (Examples 72 and 73) using an LC-MS-MS assay. […] Pharmacokinetic parameters derived from the plasma analytical data were determined using Watson LIMS 7.2.003 (Thermo Fisher Scientific, Waltham, Mass.). The results are given in FIG. 2 and Tables 13, 14, and 15.

[4] = Prodrug in vivo pharmacokinetics in rats (plasma, LC-MS-MS); conditions: Wistar-Han, rat
Experimental: Test substances (Examples 4, 73, and 366-369) were administered by oral gavage to groups of three rats.
Blood samples were taken at various times after administration and analyzed for the parent drug (Example 4) and prodrugs (Examples 73 and 366-369) using an LC-MS-MS assay. Pharmacokinetic parameters derived from the plasma analytical data were determined using Watson LIMS version 7.2.003 (Thermo Fisher Scientific, Waltham, Mass.).

[5] = Prodrug in vivo pharmacokinetics in monkeys (plasma, LC-MS-MS); conditions: Cynomolgus, cynomolgus monkey, iv, 0.3 mg/kg, plasma exposure of Example 4 in monkeys following intravenous administration of Example 4 at 0.3 mg/kg

Chain of human KAT II (hKAT II) enzyme (Q8N5Z0 30-425): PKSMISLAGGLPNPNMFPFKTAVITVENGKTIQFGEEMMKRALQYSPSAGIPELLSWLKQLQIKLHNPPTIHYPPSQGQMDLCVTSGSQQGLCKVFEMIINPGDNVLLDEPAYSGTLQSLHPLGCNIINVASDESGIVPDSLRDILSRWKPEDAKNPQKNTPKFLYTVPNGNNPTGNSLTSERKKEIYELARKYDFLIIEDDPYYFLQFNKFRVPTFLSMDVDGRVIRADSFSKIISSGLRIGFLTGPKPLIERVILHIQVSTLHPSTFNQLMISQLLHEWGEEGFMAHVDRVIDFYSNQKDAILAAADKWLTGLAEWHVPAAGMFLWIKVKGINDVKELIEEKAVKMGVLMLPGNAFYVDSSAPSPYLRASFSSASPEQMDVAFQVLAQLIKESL

In the case of N[C@H]1Cc2ccccc2N(O)C1=O [Example 4, (3S)-3-amino-1-hydroxy-3,4-dihydroquinolin-2(1H)-one], the IC50 [1] is reported as 37.5 nM, the “AUC increase vs. oral administration of Ex. 4” value [2] is reported as 1.0 and the Cmax ([3]; Mean) is reported as 220 ng/mL. The Tmax ([3]; Mean) was 41.4 min, the half-life ([3]; Mean) was 43.8 min and the AUC ([3]; Mean, read-out: AUC) was 181 ng·h/mL. It also gave an AUC ([3]; Mean, read-out: AUC Extrap) of 186 ng·h/mL, a Cmax ([3]; Monkey 1) of 200 ng/mL and a Tmax ([3]; Monkey 1) of 60 min. The half-life ([3]; Monkey 1) was 46.8 min, the AUC ([3]; Monkey 1, read-out: AUC) was 184 ng·h/mL and the AUC ([3]; Monkey 1, read-out: AUC Extrap) was 188 ng·h/mL. For the same molecule, the Cmax ([3]; Monkey 2) was 340 ng/mL, the Tmax ([3]; Monkey 2) was 15 min and the half-life ([3]; Monkey 2) was 49.2 min. For the same molecule, the AUC ([3]; Monkey 2, read-out: AUC) was 239 ng·h/mL, the AUC ([3]; Monkey 2, read-out: AUC Extrap) was 247 ng·h/mL and the Cmax ([3]; Monkey 3) was 206 ng/mL. For the same molecule, the Tmax ([3]; Monkey 3) was 30 min, the half-life ([3]; Monkey 3) was 40.8 min and the AUC ([3]; Monkey 3, read-out: AUC) was 141 ng·h/mL. It also gave an AUC ([3]; Monkey 3, read-out: AUC Extrap) of 144 ng·h/mL, a Cmax ([3]; Monkey 4) of 133 ng/mL and a Tmax ([3]; Monkey 4) of 60 min. It also gave a half-life ([3]; Monkey 4) of 37.8 min, an AUC ([3]; Monkey 4, read-out: AUC) of 159 ng·h/mL and an AUC ([3]; Monkey 4, read-out: AUC Extrap) of 163 ng·h/mL. For the same molecule, the “% AUC Extrap” value ([3]; Mean) was 2.46%, the “% AUC Extrap” value ([3]; Monkey 1) was 2.28% and the “% AUC Extrap” value ([3]; Monkey 2) was 3.05%. For the same molecule, the “% AUC Extrap” value ([3]; Monkey 3) was 1.96%, the “% AUC Extrap” value ([3]; Monkey 4) was 2.56% and the F ([3]; Mean) was 2.1%. For the same molecule, the F ([3]; Monkey 1) was 2.1%, the F ([3]; Monkey 2) was 2.8% and the F ([3]; Monkey 3) was 1.6%. For the same molecule, the F ([3]; Monkey 4) was 1.8%, the “AUC increase vs. oral administration of Ex. 4” value [4] was 1.0 and the AUC [5] was 265 ng·h/mL.
